For orientation: solubility means the dissolved amount per volume that the medium holds.

Data on five compounds can be found in US9314966B2, “Bandseal for PEG-filled hard capsule” (QUALICAPS CO., LTD., priority 2007, dated 2016).

Holding throughout (type): physicochemical
Series [1] can be described thus: Solubility in PEG400 (naked-eye inspection). The note with it: for solubility: polyethylene glycol 400 (PEG400), organic solvent or mixture, thermodynamic from solid, read-out: Solubility in PEG400, Evaluation results. How it is done:
0.5 g each of the high-molecular compounds and plasticizers were placed into separate test tubes. 5 mL of PEG400 was added to each test tube. After stirring with a mixer, the resulting mixtures were inspected with the naked eye and the high-molecular compounds and plasticizers were evaluated for their solubility in PEG400.

The nature of series [2]: Solubility in 10 wt. % aqueous PVA copolymer solution. The note with it: aqueous with cosolvent or surfactant or cyclodextrin, thermodynamic from solid; 0.5 g in 10 wt. % aqueous PVA copolymer (POVACOAT Type F) solution; read-out: Solubility in the Aqueous PVA Copolymer Solution, Evaluation result. As for the experimental part:
(§1) Based on the results of Experimental Example 1, the candidates as raw materials for the band seal (see Table 2) were tested to research substances soluble in an aqueous solution of a PVA copolymer (POVACOAT Type F, product of Daido Kasei Corp., viscosity: 5.5 mPa·s, as measured at 25° C. using a 5% aqueous solution of the copolymer), and an aqueous solution of PVA (JP-05, product of Japan Vam & Poval Co., Ltd., average degree of polymerization: 500).
(§2) More specifically, 0.5 g each of the film-forming high-molecular compounds and plasticizers were placed into separate test tubes. A 10 wt. % aqueous solution of the PVA copolymer or a 10 wt. % aqueous solution of the PVA was added to each test tube. […] If some solids or liquid separation was observed, the mixture was evaluated as “not dissolved (insoluble)”.

Series [3] is described as follows: Solubility in 10 wt. % aqueous PVA solution. The note with it: aqueous with cosolvent or surfactant or cyclodextrin, thermodynamic from solid; 0.5 g in 10 wt. % aqueous PVA (JP-05) solution; read-out: Solubility in the Aqueous PVA Solution, Evaluation result. How it is done: as §1, §2
The mark [4] stands for this setting: 0.5 g in 5 mL of PEG400, stirred, naked eye.

A value given as a limit tells only on which side of the number the result lay.

Consider Polysorbate 80, for which the “Solubility in PEG400, Evaluation results” value in series [1] (setting [4]) is given as “x (x: dissolved)”.
On to `OCC(O)CO` [Glycerol], for which the solubility in series [1] (setting [4]) was > 100 mg/mL.
As for `CC(=O)OCC(COC(C)=O)OC(C)=O` [Triacetin], in series [1] (setting [4]), the solubility was > 100 mg/mL.
For the compound `OC[C@@H](O)[C@@H](O)[C@H](O)[C@@H](O)CO` [Sorbitol], the “Solubility in PEG (in words)” value in series [1] (0.5 g in 5 mL of PEG400) is “insoluble”. The solubility in series [1] (setting [4]) was < 100 mg/mL; in series [2], > 100 mg/mL; in series [3] it was > 100 mg/mL.
For `CC(O)CO` (centres unmarked) [Propylene glycol], the solubility in series [1] (setting [4]) was > 100 mg/mL.
